Data reported in patent US11779600B2, “Methods of treating or preventing alzheimer's disease and associated conditions” (CEDARS-SINAI MEDICAL CENTER, priority 2016, dated 2023).

Columns and labels:
Assay type in all cases: cell-based, mouse
OPN [1] = assay: OPN expression in primary bone marrow-derived macrophages (qICC, ELISA); details: for increase in OPN production/expression (qICC): without Aβ, vs untreated MΦ^BM (FIG. 14D)
Protocol: For MΦ^BM cells, the cells in each well were lifted by 2 mM EDTA-PBS, collected in tubes, and centrifuged. Cell pellets were lysed and re-suspended in a cocktail of RIPA buffer supplemented with 1% protease inhibitors (Thermo Scientific), and stored at −80° C. until use.
To test amyloid-β phagocytosis by macrophage, in repeated experiments monocytes were isolated from the bone marrow of wild-type mice (n=18 mice) and differentiated into macro-phage by 7-day cultivation in complete RPMI-1640 medium (#21870; Life Technologies) with 10% serum and 20 ng/ml MCSF (#315-02; PeproTech). Bone marrow-derived macrophages (MΦBM) were generated from femurs and tibiae cultured for 6-7 days in complete RPMI 1640 medium (Life Technologies) with 10% FBS, 100 U/ml penicillin, 100 μg/ml streptomycin, 2 mM L-glutamine and 20 ng/ml MCSF (PeproTech). Primary cultures of macrophage were then plated at 1.2×10^5 cells per well (3-4 wells for each condition) in 24-well tissue-culture plates on glass cover-slips overnight. Next, macrophages were either treated with 30 μg/ml GA (Copaxone®; TEVA Neuroscience), Brefeldin A (BFA; Sigma, 1X), or 10 μM Minocycline (Sigma) for the duration of 1, 3, or 24 h, or not treated (control group). Before addition of fibrillar amyloid-β1-42, the cells were chilled in a 4° C. ice bath for 5 min; immediately after addition of the preformed fibrillar amyloid-β1-42 (100 nM), the plates were centrifuged at 515g in 25° C. followed by incubation at 37° C. for 30 or 60 min. The cells were then rinsed with amyloid-β-free medium to remove non-incorporated amyloid-β and later washed twice with PBS. Methanol (99.8%) at −20° C. for 20 min or 4% paraformaldehyde at room temperature for 12 min was used for fixation of the cells followed by repeated washes with PBS. For immunostaining, the cells were first stained using the mouse anti-human amyloid-β mAb clone 6E10 (1:100; SIG-39320; Covance), rat anti-CD68 mAb clone FA-11 (1:100; ab53444; Abcam), rat anti-CD36 mAb clone MF3 (1:200; ab80080; Abcam), rat anti-CD204 scavenger receptor type I/II (SCARA1) mAb (1:100; MCA1322; AbD Serotec), rabbit anti-CD163 pAb (1:100; orb13303; Biorbyt), and goat anti-MMP-9 pAb (1:100; AF909; R&D systems). Secondary polyclonal antibodies included donkey anti-mouse, anti-rat, anti-rabbit, and anti-goat conjugated with Cy2, Cy3 or Cy5 (1:200; Jackson ImmunoResearch Laboratories). The cells were mounted using ProLong® Gold with DAPI (Molecular Probes, Life Technologies). Several fields (minimum n=5 randomly selected per group) were obtained from each well using a Carl Zeiss Axio Imager Z1 ApoTome-equipped microscope (an average of 120 cells in each field). Images were obtained using the same exposure time in each occasion. The fluorescent signal and its total area were determined and quantified by the conversion of individual images to greyscale and standardizing to baseline using histogram-based thresholds with NIH ImageJ software. The ‘mean area per cell’ was a result of a numerical average of the individual cell's immunoreactive area per field. The ‘area/cell’ measures the total fluorescent signal (area) divided by the total number of cells (DAPI count) of the same field (image). For all experiments, the investigators were blinded to the treatment condition.
To investigate the impact of GA on OPN expression in macrophages, a series of in vitro studies using primary MΦ^BM was performed. BM was isolated from young WT donor mice, differentiated into mature macrophages, pretreated overnight with GA ([…]; GA-MΦ^BM) and exposed to pre-formed Aβ1-42 fibrils. […] Since MΦ^BM constitutively express and secrete OPN into the extracellular matrix, OPN production by inhibiting secretion with Brefeldin A (BFA) pretreatment was assessed (FIG. 14C). Indeed, newly generated OPN was trapped by BFA, increasing its intracellular accumulation. […] GA further elevated OPN production in BFA-pretreated MΦ^BM (FIG. 14C). […]

MMP-9 = MMP-9 expression in macrophages by quantitative ICC; details: quantitative ICC (FIG. 16F-16G)
Protocol: To test amyloid-β phagocytosis by macrophage, in repeated experiments monocytes were isolated from the bone marrow of wild-type mice (n=18 mice) and differentiated into macro-phage by 7-day cultivation in complete RPMI-1640 medium (#21870; Life Technologies) with 10% serum and 20 ng/ml MCSF (#315-02; PeproTech). Bone marrow-derived macrophages (MΦBM) were generated from femurs and tibiae cultured for 6-7 days in complete RPMI 1640 medium (Life Technologies) with 10% FBS, 100 U/ml penicillin, 100 μg/ml streptomycin, 2 mM L-glutamine and 20 ng/ml MCSF (PeproTech). Primary cultures of macrophage were then plated at 1.2×10^5 cells per well (3-4 wells for each condition) in 24-well tissue-culture plates on glass cover-slips overnight. Next, macrophages were either treated with 30 μg/ml GA (Copaxone®; TEVA Neuroscience), Brefeldin A (BFA; Sigma, 1X), or 10 μM Minocycline (Sigma) for the duration of 1, 3, or 24 h, or not treated (control group). […] The fluorescent signal and its total area were determined and quantified by the conversion of individual images to greyscale and standardizing to baseline using histogram-based thresholds with NIH ImageJ software. […]
Next, MMP-9 expression and OPN proteolytic fragments were analyzed. […]

OPN [2] = assay: Western blot of OPN and its MMP-cleaved fragments in macrophages; details: Western blot band density (FIG. 16I-16J)
Protocol: MΦ^BM were lifted from each cell by 2 mM EDTA-PBS, collected in an Eppendorf tube, and centrifuged. Cell pellets were lysed in RIPA buffer (Thermo Scientific) and supplemented with a cocktail of protease inhibitors (Thermo Scientific). Protein concentration was determined using a BCA Protein Assay Kit (Thermo Scientific). Aliquots of protein samples were electrophoretically separated using 4-12% Bis-Tris gels (Invitrogen), then transferred to nitrocellulose membranes, blocked in Tris-buffered saline (TBS) containing 5% (w/v) non-fat dry milk, and hybridized with appropriate primary antibodies, including rabbit polyclonal OPN (Abcam), goat polyclonal OPN (R&D systems), and Actin (Abcam). Membranes were then incubated with the appropriate HRP-conjugated secondary antibody prior to development with chemiluminescent substrates. Densitometric analysis of blots was conducted using ImageJ software, and each experimental sample was normalized to Actin.
Next, MMP-9 expression and OPN proteolytic fragments were analyzed. […] OPN is a known substrate for MMPs (including MMP-9). A detailed analysis of OPN expression in macrophages was performed using a polyclonal antibody recognizing full-length OPN and its MMP-cleaved fragments, including the 32 kD form. […] Remarkably, the MMP-generated 32kD C-terminus-containing peptide was elevated 12-fold after GA treatment. […]

glatiramer acetate [GA]
increase in OPN in GA-treated MΦ (OPN [1]; FIG. 5D): 2 fold
increase of OPN expression in MΦ^BM (OPN [1]; GA pretreated, 100 nM fibrillar Aβ1-42 for 30 min, qICC and ELISA): 2.3-2.7 fold
increased OPN levels in cell lysates (ELISA) (OPN [1]; with BFA (FIG. 14E)): 1.4 fold
increase in OPN production/expression (qICC) (OPN [1]; with BFA, GA overnight 30 µg/ml): 1.6 fold
increased OPN levels in cell lysates (ELISA) (OPN [1]; without BFA (FIG. 14E)): 2.3 fold
increase in OPN production/expression (qICC) (OPN [1]; without BFA, GA overnight): 2.5 fold
increase of MMP-9 expression in macrophages (MMP-9): 2.7 fold
elevation of MMP-generated 32kD C-terminus-containing OPN peptide (OPN [2]): 12 fold
